Data reported in a compilation of properties of binary mixtures (doi:10.1016/j.molliq.2016.01.096).

Test: xn = mol fraction of the nth substance listed
Settings: 100 kPa

CCOS(=O)(=O)[O-].CC[n+]1ccn(C)c1 + CCOCCO
x2 = 0
Settings | speed of sound [m/s]
298.15 K | 1680.8
318.15 K | 1632.4
328.15 K | 1608.9

CCOCCO + CCOS(=O)(=O)[O-].CC[n+]1ccn(C)c1
speed of sound [m/s]
Settings | 298.15 K | 308.15 K | 318.15 K | 328.15 K
x1 = 0.0588 | – | – | 1620.5 | –
x1 = 0.1202 | 1654.9 | 1630.3 | – | 1581.6
x1 = 0.1846 | 1638.2 | 1613.2 | 1588.4 | 1563.9
x1 = 0.2326 | – | 1599.2 | – | –
x1 = 0.3548 | 1586.6 | 1560.3 | 1534.4 | 1509
x1 = 0.4516 | – | 1526.4 | 1499.8 | 1473.7
x1 = 0.5511 | 1516.8 | 1488.9 | 1461.4 | –
x1 = 0.6529 | 1476.3 | 1447.6 | 1419.1 | 1390.8
x1 = 0.741 | – | – | 1379.3 | –
x1 = 0.8273 | – | – | 1336.7 | 1305.7
x1 = 0.8658 | – | – | 1316.4 | –
x1 = 0.9094 | 1356.8 | 1324.7 | 1291.9 | 1259.3
x1 = 0.9512 | 1333.2 | 1300.2 | 1266.4 | 1232.9
x1 = 1 | 1302.8 | 1268.6 | 1233.3 | 1198.8
